Test results taken from PMC12006171, “Marsupial cathelicidins: characterization, antimicrobial activity and evolution in this unique mammalian lineage” (Frontiers in Immunology, 2025).
In brackets after ≈: the same amount, converted by molar mass. Like-named read-outs stand apart in the source and are kept apart here. Each block holds one molecule with its values, some of them ahead of it. Where a SMILES comes first, the peptide text is derived from it.

Legend:
Type in all cases: cell-based
[1] = system: Staphylococcus aureus clinical isolate – animal, penicillin-resistant (PRSA)
Description: (§1) Antimicrobial testing of 78 cathelicidin MPs was performed in two phases as outlined in Figure 1 . In phase I, 40 peptides (27 extant and 13 ancestral) were selected for testing based on rank (outlined above) and similarity to published marsupial cathelicidins with known antimicrobial activity ([33], [41]–[43]). These peptides were tested against nine bacteria (Staphylococcus aureus ATCC 29213 and clinical isolate, Escherichia coli ATCC 25922 and clinical isolate, Pseudomonas aeruginosa ATCC 27853 and clinical isolate, Streptococcus agalactiae ATCC 12386 and clinical isolate, Streptococcus pneumoniae ATCC 49619) and three fungi (Candida krusei ATCC 6258, Candida parapsilosis ATCC 22019, and Candida albicans clinical isolate). Details regarding these strains are available in Supplementary Table 4 . The antimicrobial activity of cathelicidins was determined as the minimum inhibitory concentration (MIC), which was the lowest concentration of cathelicidin that prevented visible bacterial or fungal growth, relative to the negative control. […] Minimum bactericidal concentration (MBC) and/or minimum fungicidal concentration (MFC) was conducted to determine microbicidal versus static action. Activity against S. aureus ATCC, E. coli ATCC, and Pseudomonas aeruginosa ATCC 27853 was examined in the presence of divalent cations to determine the impact of inhibitors.
(§2) Antimicrobial activity was determined using a broth microdilution susceptibility assay in 96 well polypropylene plates according to Clinical Laboratory Standards Institute guidelines M07-A and M26A as described previously ([33], [42], [43]). The bacterial and fungal isolates from humans and animals used in this study are outlined in Supplementary Table 4 . Only yeasts were included in the panel of fungi as they have been used in the susceptibility testing of eutherian ([3], [81]–[83]) and other marsupial cathelicidins previously ([33], [42], [43]). Cathelicidin mature peptides were solubilized in DMSO and serially diluted in duplicate from 128-0.25μg/mL in a final volume of 100µL. For bacteria, cathelicidins were diluted in Mueller Hinton Broth (MHB) with or without 10% lysed horse blood, and with (MH II B) or without (MHB) calcium and magnesium cations. For fungi, cathelicidins were diluted in Roswell Park Memorial Institute medium (RPMI)-1640 MOPS. Ampicillin or tetracycline were included as a positive control for Gram-positive and -negative bacteria respectively, while amphotericin B was used for fungi. A media-only negative control and growth control (no cathelicidin) were also included on each plate. Bacteria were sub-cultured on Muller Hinton agar (MHA) or sheep blood agar (BA), and fungi on Sabouraud dextrose agar (SAB), 20–24 hours prior to the test. Colonies were suspended in saline, the concentration adjusted to a 0.5 McFarland standard, and then diluted in media to a concentration of 1.0 x 10^6 cells/mL. Then, 100μL was added to each well of the cathelicidin dilution plate, giving a final inoculum density of 5 x 10^5 CFU/mL and cathelicidin concentration of 64-0.125μg/mL. Colony counts were performed on MHA/BA/SAB to confirm inoculum density. All plates were incubated at 35°C for 20–24 hours, depending on the strain.
(§3) Colonies were counted and compared to the colony count of the starting inoculum.

[2] = system: Staphylococcus aureus clinical isolate – animal, methicillin-resistant (MRSA)
Description: as §1, §2, §3

[3] = system: Candida parapsilosis ATCC 22019; experiment: microbe, parasite or virus in culture; conditions: for MIC: read-out: MIC C. parapsilosis ATCC
Outline: (§4)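 Broth microdilution per CLSI M07-A/M26A; peptides in DMSO, final 64-0.125 μg/mL, inoculum 5 x 10^5 CFU/mL. Bacteria in MHB ± 10% lysed horse blood ± Ca/Mg cations, yeasts in RPMI-1640 MOPS; 35°C for 20–24 h. MIC is lowest concentration without visible growth.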

Candida krusei ATCC 6258 = experiment: microbe, parasite or virus in culture
Outline: as §4

[4] = system: Streptococcus agalactiae Clinical isolate - animal; experiment: microbe, parasite or virus in culture
Outline: as §4

[5] = system: Streptococcus agalactiae ATCC 12386; experiment: microbe, parasite or virus in culture
Outline: as §4

[6] = system: Candida albicans Clinical isolate - human; experiment: microbe, parasite or virus in culture
Outline: as §4

[7] = system: Streptococcus pneumoniae ATCC 49619; experiment: microbe, parasite or virus in culture
Outline: as §4

[8] = system: Pseudomonas aeruginosa ATCC 27853; experiment: microbe, parasite or virus in culture
Outline: (§5)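 Broth microdilution per CLSI M07-A/M26A: DMSO-solubilized cathelicidin mature peptides at final 64-0.125μg/mL in Mueller Hinton broth (with or without 10% lysed horse blood, with or without calcium/magnesium), final inoculum 5 x 10^5 CFU/mL, 35°C for 20–24 hours. MIC = lowest concentration preventing visible growth.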

[9] = system: Staphylococcus aureus clinical isolate - animal; experiment: microbe, parasite or virus in culture
Outline: as §5

[10] = system: Escherichia coli ATCC 25922; experiment: microbe, parasite or virus in culture
Outline: as §5

[11] = system: Escherichia coli clinical isolate - animal; experiment: microbe, parasite or virus in culture
Outline: as §5

[12] = system: Pseudomonas aeruginosa clinical isolate - animal; experiment: microbe, parasite or virus in culture
Outline: as §5

[13] = system: Staphylococcus aureus ATCC 29213; experiment: microbe, parasite or virus in culture
Outline: as §5

[14] = value in brackets, µM equivalent of Table 3
[15] = value in brackets, µM version of Table 4
[16] = clinical isolate, value in brackets, µM equivalent of Table 3
[17] = clinical isolate, µM equivalent of Table 3
[18] = clinical isolate, superscript value, cation-adjusted Mueller Hinton broth, µM equivalent
[19] = clinical isolate – animal, penicillin-resistant (PRSA)
[20] = clinical isolate – animal, methicillin-resistant

SMILES: CC[C@H](C)[C@H](NC(=O)[C@H](CCCCN)NC(=O)[C@H](Cc1ccccc1)NC(=O)[C@H](CC(N)=O)NC(=O)[C@H](CCCCN)NC(=O)[C@H](CC(C)C)NC(=O)[C@H](CCCNC(=N)N)NC(=O)[C@H](CCCCN)NC(=O)[C@H](CCCCN)NC(=O)[C@@H](NC(=O)[C@H](CO)NC(=O)[C@H](CC(=O)O)NC(=O)CNC(=O)[C@H](Cc1ccccc1)NC(=O)[C@H](CCCCN)NC(=O)[C@H](CCCCN)NC(=O)[C@H](CC(C)C)NC(=O)[C@H](CCCCN)NC(=O)[C@H](CCCCN)NC(=O)[C@H](CCCCN)NC(=O)[C@H](CC(C)C)NC(=O)[C@H](CO)NC(=O)[C@H](CCCCN)NC(=O)[C@H](Cc1c[nH]c2ccccc12)NC(=O)[C@H](CC(C)C)NC(=O)CNC(=O)[C@H](CCCNC(=N)N)NC(=O)[C@@H](N)CCCCN)[C@@H](C)CC)C(=O)NCC(=O)N[C@@H](Cc1ccccc1)C(=O)N1CCC[C@H]1C(=O)N[C@H](C(=O)N1CCC[C@H]1C(=O)N[C@@H](CC(C)C)C(=O)O)[C@@H](C)CC [MAP14] (H-KRGLWKSLKKKLKKFGDSIKKRLKNFKIGFPIPL-OH)
- MBC PRSA [1, 14]: 3.9 µM
- MIC PRSA ([1]; µM equivalent of Table 3): 3.9 µM
- MBC MRSA [2, 14]: 15.8 µM
- MIC MRSA ([2]; µM equivalent of Table 3): 15.8 µM
- MFC C. parapsilosis ATCC [3, 15]: 7.9 µM (≈ 31.9 µg/mL)
- MIC ([3]; µM version of Table 4): 3.9 µM (≈ 15.8 µg/mL)
- MFC C. krusei ATCC (Candida krusei ATCC 6258; [15]): > 15.8 µM
- MIC C. krusei ATCC (Candida krusei ATCC 6258; µM version of Table 4): 15.8 µM (≈ 63.9 µg/mL)
- MBC S. agalactiae [4, 16]: 7.9 µM
- MIC S. agalactiae [4, 17]: 7.9 µM
- MBC S. agalactiae ATCC [5, 14]: 15.8 µM
- MIC S. agalactiae ATCC ([5]; µM equivalent of Table 3): 15.8 µM
- MIC ([6]; clinical isolate, µM version of Table 4, read-out: MIC C. albicans): >15.8 µM
- MBC S. pneumoniae ATCC [7, 14]: 7.9 µM
- MIC S. pneumoniae ATCC ([7]; µM equivalent of Table 3): 7.9 µM
- MIC ([8]; superscript value, cation-adjusted Mueller Hinton broth, µM equivalent, read-out: MIC in the presence of cations P. aeruginosa ATCC): 1.9 µM
- MBC P. aeruginosa ATCC [8, 14]: 3.9 µM
- MIC ([8]; µM equivalent of Table 3, read-out: MIC P. aeruginosa ATCC): 3.9 µM
- MIC in the presence of cations S. aureus [9, 18]: 7.9 (7.9)^7.9 µM
- MBC S. aureus [9, 16]: 7.9 (7.9)^7.9 µM
- MIC S. aureus [9, 17]: 7.9 (7.9)^7.9 µM
- MIC in the presence of cations E. coli ATCC ([10]; superscript value, cation-adjusted Mueller Hinton broth, µM equivalent): 1.9 (1.9)^1.9 µM
- MBC E. coli ATCC [10, 14]: 1.9 (1.9)^1.9 µM
- MIC E. coli ATCC ([10]; µM equivalent of Table 3): 1.9 (1.9)^1.9 µM
- MIC in the presence of cations E. coli ([11]; clinical isolate, superscript value, cation-adjusted Mueller Hinton broth): 4 mg/L
- MIC in the presence of cations E. coli [11, 18]: 0.9 µM
- MBC E. coli [11, 16]: 1.9 µM
- MIC [11, 17]: 1.9 µM
- MBC P. aeruginosa [12, 16]: 3.9 (3.9)^3.9 µM
- MIC P. aeruginosa [12, 17]: 3.9 (3.9)^3.9 µM
- MIC in the presence of cations S. aureus ATCC ([13]; superscript value, cation-adjusted Mueller Hinton broth, µM equivalent of Table 3): 7.9 (7.9)^7.9 µM
- MBC S. aureus ATCC [13, 14]: 7.9 (7.9)^7.9 µM
- MIC S. aureus ATCC ([13]; µM equivalent of Table 3): 7.9 (7.9)^7.9 µM

- MIC PRSA [1, 19]: 3.7 µM (≈ 16 µg/mL)
- MIC MRSA [2, 20]: 14.8 µM (≈ 63.8 µg/mL)
- MIC ([3]; ATCC 22019): 7.4 µM (≈ 31.9 µg/mL)
- MIC S. agalactiae ([4]; clinical isolate - animal): 7.4 µM (≈ 31.9 µg/mL)
- MIC S. agalactiae ATCC ([5]; ATCC 12386): 14.8 µM (≈ 63.8 µg/mL)
- MIC C. albicans ([6]; Clinical isolate - human): >64 mg/L
- MIC S. pneumoniae ATCC ([7]; ATCC 49619): 7.4 µM (≈ 31.9 µg/mL)
- MIC P. aeruginosa ATCC ([8]; ATCC 27853): 3.7 (3.7)^3.7 µM
- MIC in the presence of cations P. aeruginosa ATCC ([8]; ATCC 27853): 3.7 (3.7)^3.7 µM
- MIC S. aureus ([9]; clinical isolate - animal): 7.4 (7.4)^7.4 µM
- MIC in the presence of cations S. aureus ([9]; clinical isolate - animal): 7.4 (7.4)^7.4 µM
- MIC ([10]; ATCC 25922, read-out: MIC E. coli ATCC): 3.7 µM (≈ 16 µg/mL)
- MIC ([10]; ATCC 25922, read-out: MIC in the presence of cations E. coli ATCC): 3.7 µM
- MIC ([11]; clinical isolate - animal): 3.7 µM (≈ 16 µg/mL)
- MIC in the presence of cations E. coli ([11]; clinical isolate - animal): 1.8 µM
- MIC ([12]; clinical isolate - animal, read-out: MIC P. aeruginosa): 3.7 µM (≈ 16 µg/mL)
- MIC ([12]; clinical isolate - animal, read-out: MIC in the presence of cations P. aeruginosa): 3.7 µM
- MIC S. aureus ATCC ([13]; ATCC 29213): 7.4 (7.4)^7.4 µM
- MIC in the presence of cations S. aureus ATCC ([13]; ATCC 29213): 7.4 (7.4)^7.4 µM
SMILES: CC[C@H](C)[C@H](NC(=O)[C@H](CCCNC(=N)N)NC(=O)CNC(=O)[C@H](CCCNC(=N)N)NC(=O)[C@@H](N)CCCCN)C(=O)N[C@@H](Cc1ccccc1)C(=O)N[C@@H](CCCNC(=N)N)C(=O)N[C@@H](CCCCN)C(=O)N[C@@H](Cc1ccccc1)C(=O)N[C@@H](CCCCN)C(=O)N[C@@H](CCCCN)C(=O)N[C@@H](CC(C)C)C(=O)N[C@@H](CC(C)C)C(=O)N[C@@H](CCCCN)C(=O)N[C@@H](CCCCN)C(=O)N[C@@H](CC(C)C)C(=O)NCC(=O)N[C@@H](CC(=O)O)C(=O)N[C@@H](CCCCN)C(=O)N[C@H](C(=O)N[C@@H](CCCCN)C(=O)N[C@@H](CC(N)=O)C(=O)N[C@H](C(=O)N[C@@H](CC(C)C)C(=O)N[C@@H](CCCCN)C(=O)N[C@@H](CC(N)=O)C(=O)N[C@@H](C)C(=O)N[C@@H](CCCNC(=N)N)C(=O)N[C@@H](CC(N)=O)C(=O)NCC(=O)N[C@@H](Cc1ccccc1)C(=O)N[C@@H](CC(C)C)C(=O)NCC(=O)N1CCC[C@H]1C(=O)N[C@H](C(=O)NCC(=O)N[C@@H](CCCNC(=N)N)C(=O)O)[C@@H](C)CC)[C@@H](C)O)[C@@H](C)CC [MAP8] (H-KRGRIFRKFKKLLKKLGDKIKNTLKNARNGFLGPIGR-OH)
- MBC PRSA [1, 19]: 7.4 µM (≈ 31.9 µg/mL)
- MBC MRSA [2, 20]: > 14.8 µM
- MFC C. krusei ATCC (Candida krusei ATCC 6258; ATCC 6258): > 64 mg/L
- MBC S. agalactiae ([4]; clinical isolate - animal): 7.4 µM (≈ 31.9 µg/mL)
- MBC S. agalactiae ATCC ([5]; ATCC 12386): 14.8 µM (≈ 63.8 µg/mL)
- MBC S. pneumoniae ATCC ([7]; ATCC 49619): 7.4 µM (≈ 31.9 µg/mL)
- MBC P. aeruginosa ATCC ([8]; ATCC 27853): 3.7 (3.7)^3.7 µM
- MBC S. aureus ([9]; clinical isolate - animal): 7.4 (7.4)^7.4 µM
- MBC E. coli ATCC ([10]; ATCC 25922): 7.4 µM (≈ 31.9 µg/mL)
- MBC E. coli ([11]; clinical isolate - animal): 3.7 µM (≈ 16 µg/mL)
- MBC P. aeruginosa ([12]; clinical isolate - animal): 7.4 µM (≈ 31.9 µg/mL)
- MBC S. aureus ATCC ([13]; ATCC 29213): 7.4 (7.4)^7.4 µM
